Assay [1] concerns C. krusei NCPF3876. Kind of assay: microbe, parasite or virus in culture. Format: cell-based, Candida krusei. The following applies: Pichia kudriavzevii, NCPF3876; Table 4, common panel; 24 hours, ≥50% inhibition; read-out: MIC C. krusei NCPF3876. On the procedure: (§1) The minimum inhibitory concentration of test compounds were determined in a panel of Candida species (see Table 4 below), using the a serial dilution method in 96-well plates using the following protocol.
(§2) Starter cultures of fungal strains to be tested were grown in 3 mL of RPMI 2% glucose media incubated at 37° C. with shaking at 200 rpm overnight. The culture media used was 900 mL H2O; 10.4 g RPMI 1640 (with L-glutamine and a pH indicator but without bicarbonate); 34.5 g MOPS and 18 g glucose. The pH of the media was adjusted to 7.0 with 1 M sodium hydroxide.
(§3) Solutions of the compound to be tested were prepared by dissolving the compound in DMSO and subsequently into media to the desired concentrations. […] The last two rows of each plate were control rows containing the culture media alone and the media plus fungi.
(§4) The fungi starter cultures were diluted 1:10 in water in cuvettes. This was then further diluted to an optical density (OD600) of 0.01 in media. 100 μL of the fungi was added to each well giving a starting concentration of fungus of 0.5-5×10^5/mL. One species of fungus was used on each plate. The plates were then held at 37° C. for 24 hours.
(§5) A plate reader was used to measure growth in each well at OD530 nm and the MIC was determined for each test compound. The MIC is defined as the lowest concentration giving rise to inhibition of ≥50% of that of the drug-free control well containing the fungus and media.

The subject of assay [2] is C. auris 8977. The experiment in a line: Candida panel MIC, serial dilution in 96-well plates. The format is cell-based, Candida auris. To be noted: Candidozyma auris, 8977; Table 4, extended panel; 24 hours, ≥50% inhibition; read-out: MIC C. auris 8977. On the procedure:
as §1, §2, §3, §4, §5
(§6) The Candida auris strains shown in Table 7 were either taken from the National Collection of Pathogenic Fungi (NCPF) or collected as part of ongoing surveillance studies. The strains were characterised as follows.

The subject of assay [3] is C. auris 8984. The description is as above. The following applies: Candidozyma auris, 8984; Table 4, extended panel; 24 hours, ≥50% inhibition; read-out: MIC C. auris 8984. The format is cell-based, Candida auris. How it is done: as §1, §2, §3, §4, §5, §6
Assay [4] concerns C. auris 8971. Described as above. The format is cell-based, Candida auris. To be noted: Candidozyma auris, 8971; Table 4, extended panel; 24 hours, ≥50% inhibition; read-out: MIC C. auris 8971. On the procedure:
as §1, §2, §3, §4, §5, §6

Assay [5] deals with C. albicans NCPF3281. The assay is described as above. The format is cell-based, Candida albicans. The following applies: Candida albicans, read-out: MIC C. albicans NCPF3281. On the procedure: as §1, §2
(§7) Solutions of the compound to be tested were prepared by dissolving the compound in DMSO and subsequently into media to the desired concentrations. 200 μL of compound solution was then added to the wells of the 96-well plate using a serial dilution method row-by row of the plate to give a compound concentration gradient across the plate of from 128 μg/mL to 0.25 μg/mL. The last two rows of each plate were control rows containing the culture media alone and the media plus fungi.
as §4, §5

In assay [6] the test system is Candida auris TDG2512. The assay is described as above. The format is cell-based. To be noted: Candidozyma auris, read-out: MIC Candida auris TDG2512. How it is done: as §1, §2, §7, §4, §5
Assay [7] deals with Candida auris TDG1102. The description is as above. Format: cell-based. The following applies: Candidozyma auris, TDG1102; Table 4, extended panel; 24 hours, ≥50% inhibition; read-out: MIC Candida auris TDG1102. How it is done:
as §1, §2, §7, §4, §5

The subject of assay [8] is C. tropicalis NCPF8760. The description is as above. The format is cell-based. The following applies: NCPF8760, Table 4, common panel, 24 hours, ≥50% inhibition, read-out: MIC C. tropicalis NCPF8760. How it is done:
as §1, §2, §7, §4, §5

Assay [9] concerns C. auris TDG1912. Described as above. The format is cell-based. The following applies: Candidozyma auris, read-out: MIC C. auris TDG1912. On the procedure:
as §1, §2, §7, §4, §5

Assay [10] deals with Candida auris TDG2506. Kind of assay: microbe, parasite or virus in culture. To be noted: Candidozyma auris, TDG2506; Table 4, extended panel; 24 hours, ≥50% inhibition; read-out: MIC Candida auris TDG2506. Format: cell-based. How it is done: as §1, §2, §3, §4, §5, §6
In assay [11] the test system is Candida auris TDG2211. Kind of assay: microbe, parasite or virus in culture. Format: cell-based. The following applies: Candidozyma auris, TDG2211; Table 4, extended panel; 24 hours, ≥50% inhibition; read-out: MIC Candida auris TDG2211. How it is done: as §1, §2, §3, §4, §5, §6
Assay [12] deals with C. parapsilosis NCPF3209. Kind of assay: microbe, parasite or virus in culture. Format: cell-based, Candida parapsilosis. To be noted: Lodderomyces parapsilosis, NCPF3209; Table 4, common panel; 24 hours, ≥50% inhibition; read-out: MIC C. parapsilosis NCPF3209. How it is done:
as §1, §2, §3, §4, §5

The subject of assay [13] is C. glabrata NCPF8018. Kind of assay: Candida panel MIC, serial dilution in 96-well plates. To be noted: Nakaseomyces glabratus, NCPF8018; Table 4, common panel; 24 hours, ≥50% inhibition; read-out: MIC C. glabrata NCPF8018. The format is cell-based, Candida glabrata. How it is done: as §1, §2, §3, §4, §5
[14] abbreviates: NCPF3281, Table 4, common panel, 24 hours, ≥50% inhibition.
The mark [15] stands for this setting: TDG2512, Table 4, extended panel, 24 hours, ≥50% inhibition.
Setting [16] is: TDG1912, Table 4, 24 hours, ≥50% inhibition.

Values after ≈ are worked out from the molar mass of the structure shown. Like-named read-outs stand apart in the source and are kept apart here.

In the case of `OC(CN1CCC(Nc2ccc(OCCN3CCCC3)cc2)CC1)(Cn1cncn1)c1ccc(F)cc1F` (centres unmarked) [Example 82], the MIC in assay [1] was 8 µg/mL (≈ 15.2 µM); in assay [2], 4 to 16 µg/mL (≈ 7.6 to 30.4 µM); in [3], 4 µg/mL (≈ 7.6 µM); in [4], 2 to 8 µg/mL (≈ 3.8 to 15.2 µM); in [5] (setting [14]), 0.25 µg/mL (≈ 0.475 µM); in assay [6] (setting [15]) it was 1 µg/mL (≈ 1.9 µM). Moreover, the MIC in assay [7] is 16 µg/mL (≈ 30.4 µM); in assay [8] it was more than 32 µg/mL; in [9] (setting [16]), 4 to 16 µg/mL (≈ 7.6 to 30.4 µM); in [10] it was 4 µg/mL (≈ 7.6 µM); in assay [11] it was 0.5 to 2 µg/mL (≈ 0.949 to 3.8 µM); in assay [12], 0.25 µg/mL (≈ 0.475 µM). In addition, the MIC in [13] amounted to 32 µg/mL (≈ 60.8 µM).

Consider `CC1CCN(COc2ccc(NC3CCN(CC(O)(Cn4cncn4)c4ccc(F)cc4F)CC3)cc2)CC1` (centres unmarked) [Example 83], for which the MIC in [1] worked out at 4 µg/mL (≈ 7.4 µM); in [2], 1 µg/mL (≈ 1.85 µM); in assay [3] it was 2 µg/mL (≈ 3.7 µM); in [4], 1 µg/mL (≈ 1.85 µM); in assay [5] (setting [14]), 0.06 µg/mL (≈ 0.111 µM); in assay [6] (setting [15]) it was 0.25 µg/mL (≈ 0.462 µM). Further, the MIC is 4 µg/mL (≈ 7.4 µM) in [7]; 8 µg/mL (≈ 14.8 µM) in assay [8]; 1 to 4 µg/mL (≈ 1.85 to 7.4 µM) in [9] (setting [16]); 0.5 to 2 µg/mL (≈ 0.925 to 3.7 µM) in assay [10]; 0.25 µg/mL (≈ 0.462 µM) in [11]; 0.06 µg/mL (≈ 0.111 µM) in assay [12]. The MIC in assay [13] came out at 8 µg/mL (≈ 14.8 µM).

Take `Cc1ccc(Oc2ccc(NC3CCN(CC(O)(Cn4cncn4)c4ccc(F)cc4F)CC3)cc2)cc1` (centres unmarked) [Example 85]: the MIC in assay [1] is 0.0156 to 0.25 µg/mL (≈ 0.03 to 0.481 µM); in assay [2] it was 0.015 to 0.03 µg/mL (≈ 0.0289 to 0.0577 µM); in assay [3], 0.0625 to 0.5 µg/mL (≈ 0.12 to 0.962 µM); in assay [4] it was 0.00195 to 0.125 µg/mL (≈ 0.00375 to 0.241 µM); in assay [5] (setting [14]), 0.0078 µg/mL (≈ 0.015 µM); in [6] (setting [15]) it was 0.00391 to 0.0313 µg/mL (≈ 0.00753 to 0.0602 µM). Further, the MIC in [7] was 0.0625 to 0.25 µg/mL (≈ 0.12 to 0.481 µM); in assay [8], 0.25 µg/mL (≈ 0.481 µM); in assay [9] (setting [16]) it was 0.0625 µg/mL (≈ 0.12 µM); in assay [10], 0.0625 to 0.125 µg/mL (≈ 0.12 to 0.241 µM); in assay [11], 0.015 to 0.125 µg/mL (≈ 0.0289 to 0.241 µM); in [12], 0.00391 to 0.0313 µg/mL (≈ 0.00753 to 0.0602 µM). The MIC in assay [13] was determined as 1 µg/mL (≈ 1.92 µM).

`OC(CN1CCC2(CCC(Nc3ccc(OCCN4CCOCC4)cc3)CC2)C1)(Cn1cncn1)c1ccc(F)cc1F` (centres unmarked) [Example 87]: the MIC in [1] came out at 1 µg/mL (≈ 1.68 µM); in assay [2], 0.25 µg/mL (≈ 0.419 µM); in [3], 0.25 µg/mL (≈ 0.419 µM); in [4], 0.25 µg/mL (≈ 0.419 µM); in assay [5] (NCPF3281, 24 h), 0.313 µg/mL (≈ 0.525 µM); in assay [6] (TDG2512, 24 h) it was 0.0625 µg/mL (≈ 0.105 µM). Moreover, the MIC in assay [7] was 0.5 µg/mL (≈ 0.838 µM); in assay [8], 2 µg/mL (≈ 3.35 µM); in assay [9] (TDG1912, 24 h), 0.5 µg/mL (≈ 0.838 µM); in [10], 0.125 µg/mL (≈ 0.209 µM); in assay [11], 0.125 µg/mL (≈ 0.209 µM); in [12], 0.313 µg/mL (≈ 0.525 µM). Further, in assay [13], the MIC came to 4 µg/mL (≈ 6.7 µM).

With `OC(CN1CCC2(CCN(c3ccc(OCCN4CCOCC4)cc3)CC2)C1)(Cn1cncn1)c1ccc(F)cc1F` (centres unmarked) [Example 88], the MIC in [1] came to 1 µg/mL (≈ 1.72 µM); in assay [2] it was 0.125 µg/mL (≈ 0.215 µM); in [3], 0.25 µg/mL (≈ 0.429 µM); in assay [4], 0.25 µg/mL (≈ 0.429 µM); in assay [5] (setting [14]) it was 0.0313 µg/mL (≈ 0.0537 µM); in assay [6] (setting [15]) it was 0.0625 µg/mL (≈ 0.107 µM). Also, the MIC was 0.5 µg/mL (≈ 0.858 µM) in assay [7]; 1 µg/mL (≈ 1.72 µM) in assay [8]; 0.5 µg/mL (≈ 0.858 µM) in assay [9] (setting [16]); 0.25 µg/mL (≈ 0.429 µM) in [10]; 0.125 µg/mL (≈ 0.215 µM) in [11]; 0.0313 µg/mL (≈ 0.0537 µM) in assay [12]. For the same compound, the MIC in assay [13] turned out to be 4 µg/mL (≈ 6.86 µM).

These data come from US20240246920A1, “TRIAZOLE DERIVATIVES WITH ANTIFUNGAL ACTIVITY” (King's College London, priority 2020, published 2024).
